Source: patent publication US20220118117A1, “MODULATORS OF METABOTROPIC GLUTAMATE RECEPTOR 4” (The General Hospital Corporation, priority 2019, published 2022)
Values joined by “and” are separate entries in the source; they are usually repeats but may differ in a detail not shown here. Equal values may be shown once.

Columns and labels:
plasma stability = assay type: in vitro ADME; conditions: rat plasma; for Plasma stability, remaining of the intact test compound: 37° C.
Procedure: Briefly, each tube is added 882 μL of 1:1 diluted rat plasma with phosphate buffer (pH 7.4). 18 μL (100 μM) of DMSO stock solution of the test compound (4, 13 and 15) or positive control compound (Diltiazem) was added to make a final compound concentration 2 μM in the plasma solution and final DMSO content 2%. The mixture was incubated at 37° C. After the incubation at 0, 15, 30, 60, and 120 min time points, aliquots of 50 μL samples were quenched with 100 μL of ice-cold acetonitrile with 25 μM of the internal reference (for HPLC analysis), respectively. The quenched samples were centrifuged at 10,000×g, and the supernatant was analyzed by HPLC. The percentage of remaining intact test compound was calculated by (peak area at the specific time point)/(peak area at 0 min)×100. Every sample was assayed three times.

microsomal stability = assay type: in vitro ADME, Sprague-Dawley rat; conditions: rat liver microsomes, NADPH
Procedure: First, Sprague-Dawley rat liver microsomes (0.5 mg/mL, Sigma-Aldrich, No. M9066) was incubated with PBS (50 mM, pH=7.4) in a reaction tube at 37° C. for 3 min. To the reaction tube were added the test compound (2 μM) and then cofactor, NADPH (1 mM), to start the reaction. The mixture was shaken in a water bath at 37° C. At different time points (0, 5, 10, 15, 30 min), aliquots (50 μL) were removed and added to 100 μl of cold acetonitrile with internal standard (25 μM) to quench the reaction. The precipitated material was by centrifugation (10,000×g, 10 min, 4° C.), and the supernatant was analyzed by RP-HPLC (Column: Phenomenex Luna© 5 μm, Cis, 100 Å, 250×4.6 mm). The RP-HPLC was carried out by using a 15-min gradient method: eluent A: 0.1% formic acid/H2O; eluent B: 0.1% formic acid/CH3CN; gradient: […]; 5% B to 95% B from 1 to 9 min, 95% B from 9 to 12 min, 95% to 5% B from 12 to 13 min, 5% B from 13 to 15 min; flow rate at 0.7 mL/min.
The in peak area ratio (test compound peak area at a time point/peak area at 0 min time point) was plotted against time and the gradient of the line was determined. Subsequently, the half-life (t1/2) was calculated as 0.693/k, where the elimination rate constant k equals to −gradient. V (μL/mg) was obtained as a ratio of volume of incubation […]/protein in the incubation (mg). Finally, the intrinsic clearance (CLint) (μL/min/mg protein) was calculated as V*0.693/t1/2.

solution stability = assay type: physicochemical
Procedure: Three pH values, 5, 7.4 and 9.4 were selected to check the solution stability. Aqueous solutions with different pH values were established using the following buffers: sodium acetate-KCl—HCl buffer (20 mM, pH 5.0), phosphate buffer (20 mM, pH 7.4), and boric acid-KCl—NaOH buffer (20 mM, pH 9.4). 891 μL of each pH buffer was placed in different tubes. 9 μL (1 mM) of the sample stock (4, 13, 15 and Diltiazem) was transferred to a particular buffer tube and mixed just before the time 0 min. The mixture was vortexed and incubated at 37° C. After the incubation at the different time points (0, 15, 30, 60, and 120 min), aliquots of 50 μL samples were quenched with 100 μL of ice-cold acetonitrile with 25 μM internal reference, respectively, and analyzed by HPLC. The percentage of the remaining intact compound was calculated by (peak area at the specific time point)/(peak area at 0 min)×100. Every sample was assayed three times.

mGluR4 [1] = target: mGluR4 (Homo sapiens, UniProt Q14833); assay: competitive binding (radioligand replacement) assay with [3H]4 in mGluR4 transfected CHO cells; design: expressed in transfected cells; host or cells: CHO cells; conditions: 2 nM [3H]4, read-out: IC50 (nM), affinity to mGluR4
Procedure: In Vitro mGluR4 Binding Assay. CHO cells expressing mGluR4 were used for all binding assay protocols. For competitive binding, 2 nM of [^3H]4 was used together with increased concentrations of test compounds ranging from 0.01 nM to 10 μM. Each test tube contained 50 000 freshly harvested CHO cells expressing mGluR4 cultured in HAMs cell culture medium with 100 nM of glutamate, penicillin-streptomycin (100 units), and 1 mM G418. [3H]4 (2 nM) was added to the cell extract with and without test compounds on ice and then incubated for 30 min at room temperature. Samples were centrifuged at 1200 rpm for 10 min at 4° C. and washed three times with a cold cell culture medium as a washing buffer. Samples were lysed by adding 100 μL of 0.5% NaOH and heated using a heating block (56° C., 30 min). Samples were cooled with an ice bath and transferred to Solvent-Saver scintillation vials (VWR International LLC.). To obtain binding parameters, the scintillation liquid (PerkinElmer, Optima Gold) was added prior to counting with a scintillation counter (Packard TriCarb Model, 1 min/vial). Nonspecific binding was determined using 10 μM of nonradioactive test compound, and specific binding was determined by extracting the nonspecific binding from total binding. All measurements were done in triplicate and analyzed with GraphPad Prism software (GraphPad Software Inc.).

mGluR4 [2] = target: T1, mGluR4 (Rattus norvegicus, UniProt P31423); assay: PET blocking studies of [18F]15 binding; assay type: in vivo, Sprague Dawley rats
T1 construct: from tissue; host or cells: brain of living male Sprague Dawley rats
Procedure: PET Imaging of [^18F]15 in Rats. Altogether 24 normal male Sprague Dawley rats were used for the imaging studies comprising 15 baseline studies and 15 blocking studies. Rats were anaesthetized with isoflurane/nitrous oxide (1.0-1.5% isoflurane, with oxygen flow of 1-1.5 L/min), and catheter was installed into tail vein for the administration of [^18F]15. Dynamic volumetric PET data was acquired with a PET-CT scanner for 60 min (Triumph-II, Tri-Foil Imaging, Northridge, Calif.). The vital signals such as heart rate and respiration rate were monitored during scanning period. PET data acquisition was started immediately after administration of radioactivity with the dose range of 18-34 MBq depending on the size of the rat followed by CT imaging to obtain anatomical information and data for attenuation correction of PET data. PET data was processed by using maximum-likelihood expectation-maximization (MLEM) algorithm with 30 iterations to dynamic volumetric images, and corrected for uniformity, scatter, and attenuation. The CT data was processed by the modified Feldkamp algorithm using matrix volumes of 512×512×512 and pixel size of […]. Co-registration of CT and PET images and analysis of PET images were carried out using PMOD3.2 software (PMOD Technology, Zurich, Switzerland).
For blocking studies, the same scanning protocols were used as for the baseline studies. For mGluR4 blocking experiments, 1, 2 or 3 mg/kg of 13 or 15 dissolved in a saline solution with 10% DMSO, 5% Tween-20 and 85% PBS was injected 1 min before iv administration of [^18F]15.

T1 sequence (P31423 33-912): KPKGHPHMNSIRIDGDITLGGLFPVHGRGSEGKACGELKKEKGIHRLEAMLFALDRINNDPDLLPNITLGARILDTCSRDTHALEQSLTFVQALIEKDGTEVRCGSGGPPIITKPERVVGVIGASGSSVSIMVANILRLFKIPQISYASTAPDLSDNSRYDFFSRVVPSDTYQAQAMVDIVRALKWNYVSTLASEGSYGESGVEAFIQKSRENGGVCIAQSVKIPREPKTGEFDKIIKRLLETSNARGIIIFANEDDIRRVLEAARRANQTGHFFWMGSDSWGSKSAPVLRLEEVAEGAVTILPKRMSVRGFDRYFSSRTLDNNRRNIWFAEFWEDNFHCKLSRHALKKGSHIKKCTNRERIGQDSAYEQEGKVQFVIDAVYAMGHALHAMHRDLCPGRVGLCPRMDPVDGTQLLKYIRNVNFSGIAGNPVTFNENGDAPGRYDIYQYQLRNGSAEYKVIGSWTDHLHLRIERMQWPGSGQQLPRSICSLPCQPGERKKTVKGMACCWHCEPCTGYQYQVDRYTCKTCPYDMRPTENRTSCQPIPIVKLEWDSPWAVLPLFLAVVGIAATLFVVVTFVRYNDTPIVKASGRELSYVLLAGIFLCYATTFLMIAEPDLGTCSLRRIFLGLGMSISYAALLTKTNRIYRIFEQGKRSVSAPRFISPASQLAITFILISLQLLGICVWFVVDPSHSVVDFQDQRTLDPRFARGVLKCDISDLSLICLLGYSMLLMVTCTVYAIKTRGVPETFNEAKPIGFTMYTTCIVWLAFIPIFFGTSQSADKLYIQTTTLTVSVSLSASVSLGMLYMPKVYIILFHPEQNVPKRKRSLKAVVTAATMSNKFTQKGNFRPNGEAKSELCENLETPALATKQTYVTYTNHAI
Chain of mGluR4 (Homo sapiens, UniProt Q14833) (Q14833 33-912): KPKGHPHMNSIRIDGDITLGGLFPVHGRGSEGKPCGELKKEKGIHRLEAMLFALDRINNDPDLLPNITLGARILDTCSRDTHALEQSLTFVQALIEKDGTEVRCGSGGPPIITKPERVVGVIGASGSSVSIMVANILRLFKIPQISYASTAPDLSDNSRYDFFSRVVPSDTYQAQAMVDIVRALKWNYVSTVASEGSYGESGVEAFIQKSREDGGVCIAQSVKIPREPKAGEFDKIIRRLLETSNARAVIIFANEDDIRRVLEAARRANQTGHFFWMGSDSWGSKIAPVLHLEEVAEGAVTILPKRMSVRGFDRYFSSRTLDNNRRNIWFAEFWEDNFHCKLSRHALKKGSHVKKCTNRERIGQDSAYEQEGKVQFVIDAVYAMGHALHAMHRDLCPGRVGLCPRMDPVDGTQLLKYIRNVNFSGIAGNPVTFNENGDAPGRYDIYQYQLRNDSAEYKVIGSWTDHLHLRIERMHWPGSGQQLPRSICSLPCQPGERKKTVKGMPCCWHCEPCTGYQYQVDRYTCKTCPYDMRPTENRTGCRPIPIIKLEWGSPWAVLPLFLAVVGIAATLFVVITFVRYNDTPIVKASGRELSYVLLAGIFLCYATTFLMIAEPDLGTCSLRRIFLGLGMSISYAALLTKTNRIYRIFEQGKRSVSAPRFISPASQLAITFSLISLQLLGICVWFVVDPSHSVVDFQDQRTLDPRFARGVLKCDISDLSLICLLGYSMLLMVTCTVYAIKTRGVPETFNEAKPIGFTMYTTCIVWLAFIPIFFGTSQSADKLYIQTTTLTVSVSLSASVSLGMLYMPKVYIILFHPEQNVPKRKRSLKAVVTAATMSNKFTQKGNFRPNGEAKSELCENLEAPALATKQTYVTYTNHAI

Row | SMILES | Plasma stability, remaining of the intact test compound (plasma stability; 0 min) | Plasma stability, remaining of the intact test compound (plasma stability; 15 min) | Plasma stability, remaining of the intact test compound (plasma stability; 30 min) | Plasma stability, remaining of the intact test compound (plasma stability; 60 min) | Plasma stability, remaining of the intact test compound (plasma stability; 120 min) | The plasma stability, The intact ± SEM at 120 min (%) (plasma stability; 120 min) | The microsome stability Clint (μL/min/mg protein) (microsomal stability) | The microsome stability t1/2 (microsomal stability) | The solution stability, The intact ± SEM at 120 min (%) (solution stability; pH = 5.0, 37° C.) | The solution stability, The intact ± SEM at 120 min (%) (solution stability; pH = 7.4, 37° C.) | The solution stability, The intact ± SEM at 120 min (%) (solution stability; pH = 9.4, 37° C.) | IC50 (mGluR4 [1]) | blocking effect on [18F]15 binding (mGluR4 [2]; 1 mg/kg, pre-administration) | blocking of [18F]15 binding in the whole brain (mGluR4 [2]; blocking agent injected 1 min before [18F]15) | blocking of [18F]15 binding in striatum (mGluR4 [2]; dose 1 mg/kg) | blocking of [18F]15 binding in striatum (mGluR4 [2]; dose 2 mg/kg) | blocking of [18F]15 binding in striatum (mGluR4 [2]; dose 3 mg/kg)
1 | COc1cc(NC(=O)c2ccccn2)ccc1Cl [Compound 4] | 100.00 ± 4.65% | 94.45 ± 1.65% | 97.56 ± 11.8% | 100.35 ± 8.04% | 98.21 ± 6.32% | 98.2 ± 6.3% | 96.2 μL/min/mg protein | 14.41 min and 14.4 min | 92.7 ± 3.1% | 97.3 ± 1.1% | 89.1 ± 2.1% | 5.1 nM |  |  |  |  | 
2 | CSc1cc(NC(=O)c2ccccn2)ccc1Cl [Compound 13] | 100.00 ± 0.21% | 95.34 ± 12.08% | 95.27 ± 7.76% | 93.62 ± 8.76% | 91.52 ± 2.49% | 91.5 ± 2.5% | 54.8 μL/min/mg protein | 25.30 min | 85.9 ± 0.8% | 87.9 ± 3.4% | 89.3 ± 1.3% | 3.4 nM | 25-30% | 22-25% | 18% | 20% | 28%
3 | COc1ccc([C@@H]2Sc3ccccc3N(CCN(C)C)C(=O)[C@@H]2OC(C)=O)cc1 [Diltiazem] | 100.00 ± 8.98% | 87.33 ± 9.53% | 75.23 ± 4.03% | 58.91 ± 13.39% | 48.97 ± 10.63% | 49.0 ± 10.6% |  |  | 94.7 ± 1.4% | 99.0 ± 5.7% | 69.8 ± 2.6% |  |  |  |  |  | 
